Measurements reported in ChEMBL document CHEMBL1128759, “Inhibition of interleukin-1 converting enzyme by N-acyl-aspartyl aryloxymethyl ketones” (Bioorg Med Chem Lett, 1995).
pKi: −log10 of the molar value.

What was measured:
Assay type in all cases: cell-based
Caspase-1 = target: T1, Caspase-1 (Homo sapiens, UniProt P29466); test: Inhibition of IL-1 beta converting enzyme (ICE) in human blood monocytes expressed as Ki
T1 sequence (P29466 whole entry): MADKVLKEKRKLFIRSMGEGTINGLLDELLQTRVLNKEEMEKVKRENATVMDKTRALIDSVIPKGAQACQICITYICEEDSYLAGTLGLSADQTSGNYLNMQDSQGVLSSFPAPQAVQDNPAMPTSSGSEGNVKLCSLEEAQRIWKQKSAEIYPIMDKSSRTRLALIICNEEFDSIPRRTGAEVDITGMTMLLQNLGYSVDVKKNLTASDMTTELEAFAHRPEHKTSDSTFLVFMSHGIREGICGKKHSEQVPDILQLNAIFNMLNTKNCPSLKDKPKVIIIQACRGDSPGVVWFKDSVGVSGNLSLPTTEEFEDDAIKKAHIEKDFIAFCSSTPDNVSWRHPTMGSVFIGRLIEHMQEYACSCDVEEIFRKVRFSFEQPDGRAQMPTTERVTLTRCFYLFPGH

Caspase-1 (Homo sapiens) [1] = target: T2, Caspase-1 (Homo sapiens) (UniProt P29466); test: Inhibition of IL-1 beta converting enzyme (ICE) in human blood monocytes expressed as Kon
T2 sequence (whole entry): T1 sequence (P29466 whole entry)

Caspase-1 (Homo sapiens) [2] = target: T2, Caspase-1 (Homo sapiens); test: Compound was tested for inhibition of IL-1 beta converting enzyme (ICE) in human blood monocytes expressed as Ki

Compound | pKi (Caspase-1) | k on (Caspase-1 (Homo sapiens) [1]) [M⁻¹ s⁻¹] | k on (Caspase-1 (Homo sapiens) [2]) [M⁻¹ s⁻¹]
C=CCOC(=O)NC(CC(=O)O)C(=O)COc1cc2ccccc2cc1C#N (centres undefined) |  | 4500 | 
C=CCOC(=O)N[C@@H](CC(=O)O)C(=O)CCc1cc2ccccc2cc1-c1ncc[nH]1 | < 4.00 |  | 
C=CCOC(=O)NC(CC(=O)O)C(=O)COc1cc2ccccc2cc1C(=O)Nc1ccccc1 (centres undefined) |  | 4100 | 
CC(C)[C@H](NC(=O)OCc1ccccc1)C(=O)N[C@@H](C)C(=O)N[C@@H](CC(=O)O)C(=O)COc1ccccc1 | 5.31 | 1.1 | 
C=CCOC(=O)NC(CC(=O)O)C(=O)COc1ccc(-c2ccccc2)cc1C(N)=O (centres undefined) |  |  | 3400
C=CCOC(=O)NC(CC(=O)O)C(=O)COc1c(C(N)=O)ccc2ccccc12 (centres undefined) | < 4.66 |  | 
C=CCOC(=O)NC(CC(=O)O)C(=O)COc1ccc2ccccc2c1C(N)=O (centres undefined) | < 4.74 |  | 
C=CCOC(=O)NC(CC(=O)O)C(=O)COc1cc2ccccc2cc1C(=O)N(C)C (centres undefined) | < 4.55 |  | 

Further compounds by rising pKi (Caspase-1), results first:

pKi (Caspase-1) | k on (Caspase-1 (Homo sapiens) [1]) [M⁻¹ s⁻¹] | k on (Caspase-1 (Homo sapiens) [2]) [M⁻¹ s⁻¹] | Compound
5.40 |  |  | C=CCOC(=O)NC(CC(=O)O)C(=O)COc1ccc2ccccc2c1 (centres undefined)
5.42 |  |  | C=CCOC(=O)NC(CC(=O)O)C(=O)COc1ccccc1C(N)=O (centres undefined)
5.57 |  |  | C=CCOC(=O)NC(CC(=O)O)C(=O)COc1ccccc1 (centres undefined)
5.70 |  |  | C=CCOC(=O)NC(CC(=O)O)C(=O)COc1cc(-c2ccccc2)ccc1C(N)=O (centres undefined)
5.77 | 430000 |  | CC(C)[C@H](NC(=O)OCc1ccccc1)C(=O)N[C@@H](C)C(=O)N[C@@H](CC(=O)O)C(=O)COc1cc2ccccc2cc1C(N)=O
6.49 | 5600 |  | C=CCOC(=O)NC(CC(=O)O)C(=O)COc1cc2ccccc2cc1C(N)=O (centres undefined)
7.05 | 12000 |  | C=CCOC(=O)N[C@@H](CC(=O)O)C(=O)COc1cc2ccccc2cc1-c1ncc[nH]1
